Assay [1] relates to Nrf2. Description: Nrf2 reporter (ARE-luciferase) assay. The following applies: HT29, 50 μM, 24 h. The format is cell-based, human. The method, then: Nrf2-Reporter assay: ARE-luciferase plasmid vector was obtained from Cayman Chemicals. HT29 cells were transfected at 50% confluency using lipofectamine 3000 reagent (ThermoFisher Scientific). Briefly, cells were seeded in 6-well plates (0.5×10^6 cells) and grown for 24 h. The transfection complex containing 1 μg of plasmid DNA and transfection reagent was added to each well in absence of FBS. After 6 hr medium containing 10% FBS was added and cells were incubated for another 16-18 hr. These cells were treated with vehicle (0.01% DMSO) or UroA (50 μM) or UAS03 (50 μM) or sulforaphane (10 μM) for 24 h. After incubation with inducers, cells were lysed and firefly luciferase activities (luminiscence) were measured with Luciferase Assay System (Promega) using multiwell plate luminometer (BMG, LABTECH).

Assay [2] relates to C57BL/6 mice. Description: LPS-induced peritonitis mouse model. The format is in vivo. The following applies: 20 mg/kg; LPS 2 mg/kg i.p.; 4 h post LPS. The method, then: FIG. 1: UAS03 is a potent anti-inflammatory structural analogue of UroA and induces tight junction proteins. (A) Chemical structures of UroA, UAS03. UroA/UAS03 stability was examined in the presence of gastric pH 2.0 and digestive enzymes. UroA and UAS03 (0.2 mg/ml) were incubated with digestive enzymes (esterases and proteases, 100 U/ml) for 12 h at 37° C. and compound levels were quantified. (B) BMDMs were stimulated with LPS (50 ng/ml) without or with UroA (blue line)/UAS03 (purple line) (0.1, 1, 10, 25 and 50 μM) for 6 hours. IL-6 and TNF-α levels in supernatants were measured. (C) C57BL/6 mice (n=3-4) were pretreated with UroA (20 mg/kg) and UAS03 (20 mg/kg). After 4 hours, LPS (2 mg/kg) was injected intraperitoneally. Post 4 h of LPS administration, serum levels of IL-6 and TNF-α was measured. […] (G) The fold changes in mRNA levels of claudin 4 (Cldn4), occludin (Ocln) and Zona occludens 1 (ZO1) in HT29 cells were determined by RT PCR method. (H) UroA/UAS03 induced protein expression of Cldn4, Ocln and ZO1 in HT29 cells were determined by immunoblots and quantified by Image J software. […] The green intensity (n=15-20 cell membrane regions) was measured. […] The protein lysates were prepared from colon scrapes and subjected to immunoblots and detected the expression of the (J) Nrf2, HO1, Cldn4 and (K) AhR using appropriate antibodies as described in methods. […]

The structures appear in SMILES notation.

`Oc1ccc2c(c1)COc1cc(O)ccc1-2` [UAS03, 6H-benzo[c]chromene-3,8-diol]: the ARE-luciferase luminescence result in assay [1] was “enhanced luminescence”. For the same compound, in assay [2], the “LPS-induced increase in serum IL-6 and TNF-α levels” value is listed as “reduced”.

`O=c1oc2cc(O)ccc2c2ccc(O)cc12` [UroA, 3,8-dihydroxy-6H-dibenzo[b,d]pyran-6-one]: the ARE-luciferase luminescence result in assay [1] is listed as “enhanced luminescence”. For the same compound, the “LPS-induced increase in serum IL-6 and TNF-α levels” value in assay [2] is “reduced”.

The values above are taken from US12377069B2, “Compounds, compositions, methods of using, and methods for preparing compounds” (UNIVERSITY OF LOUISVILLE RESEARCH FOUNDATION, INC., priority 2018, dated 2025).
